# Laboratory results as given in patent EP3403652A1, “PREVENTION AND TREATMENT OF FIBROBLAST GROWTH FACTOR 23 (FGF23)-ASSOCIATED DISORDERS INCLUDING CHRONIC KIDNEY DISEASE (CKD)” (Veterinärmedizinische Universität Wien, priority 2017, dated 2018).
# Legend:
# renal distal tubules [1] = experiment: Intracellular Ca2+ imaging by 2-photon microscopy in Fluo-4-loaded live kidney slices ex vivo; assay type: cell-based, mice; conditions: Klotho/VDR kidney slices; co-treatment with 200 ng/ml rFGF23, 2 h; ruthenium red 10 µM; closantel 30 ng/mL; PD173074 10 nM (iFGFR1) or 25 nM (FGFR1/3); iFGFR pan 120 nM
# Procedure: (§1) The preparation of kidney slices for ex vivo experiments was performed as described in Andrukhova O et al. (EMBO J., 2014. 33, 229-246). Longitudinal 200-µm-thick live slices from freshly isolated kidneys of 3-month-old male WT and Klotho/VDR mice were prepared using a Leica VT1000 Vibratome (Leica Microsystems), and were used for ex vivo treatment with various substances as described below.
# (§2) Longitudinal 200-µm-thick live slices of freshly isolated kidneys were prepared using a Leica VT1000 Vibratome (Leica Microsystems). For Na^+ imaging, the kidney slices of WT and Klotho/VDR mice were incubated for 60 min at 37°C with 2 µM of the sodium-sensitive dye SBFI (Molecular Probes), diluted in DMSO (Merck Millipore International) and 20% Pluronic (Merck Millipore International). For Ca^2+ imaging, the kidney slices were incubated for 30 min at 37°C with 2 µM of the calcium-sensitive dye Fluo-4 (Molecular Probes), diluted in DMSO and 20% Pluronic. Thereafter, the slices were washed two times for 20 min each in 0.1M PBS, and were subsequently incubated in vitro with vehicle (PBS), rFGF23 R176/179Q [(100 or 200 ng/ml) kindly provided by Amgen Inc., Thousand Oaks, CA, USA], PD173074 (Sigma-Aldrich) (10 nM for inhibiting FGFR1 and 25 nM for inhibiting FGFR1 and 3), pan FGFR inhibitor [(120 nM) FIIN1 hydrochloride, Tocris Bioscience, Bristol, UK)], WNK signalling inhibitor Closantel (30 ng/mL, generous gift of Dario R. Alessi) alone or combined at 37°C, 5% CO2 / 95% air humidified atmosphere for 2 h. […] For visualization of intracellular Na^+ and Ca^2+ content, SBFI or Fluo-4 were excited by a Ti:sapphire laser (Chameleon, Coherent Inc.) at 820 nm. Images (512 × 512 pixels) were acquired every 30 sec at a depth of 60 - 80 µm. Fluorescence images were analyzed using Image J software. The whole epithelial layer of the distal tubules was selected by manually drawing the region of interest (ROI) to quantify intracellular Na^+ and Ca^2+ levels. Fluorescence intensity was quantified in 4-9 ROIs per image, and the ratio between the fluorescence intensity and the ROI area was calculated for each tubule. This ratio was used for all subsequent calculations.
# (§3) To gain more insight into the functional role of the rFGF23-induced increase in distal renal tubular ion channel expression and the FGF receptors involved, we performed intracellular Ca^2+ and Na^+ imaging by 2-photon microscopy in Fluo-4- or SFBI-loaded and subsequently rFGF23-treated (100 or 200 ng/ml for 2 h), 200-µm-thick renal slices prepared from WT and Klotho/VDR mice.
# (§4) In this example it was assessed whether the Klotho-independent FGF23 signalling pathway is mediated through FGFR3 and/or 4, given that FGFR2 expression was low in distal renal tubules (Figure 12A). To dissect between the latter receptors, Klotho/VDR kidney slices were treated with rFGF23 alone or in combination with an FGFR1/FGFR3 inhibitor and the WNK signalling inhibitor closantel.
# renal distal tubules [2] = experiment: Intracellular Na+ imaging by 2-photon microscopy in SBFI-loaded live kidney slices ex vivo; assay type: cell-based, mice; conditions: Klotho/VDR kidney slices; co-treatment with 200 ng/ml rFGF23, 2 h; closantel 30 ng/mL; BF 15 µM; PD173074 10 nM (iFGFR1) or 25 nM (FGFR1/3); iFGFR pan 120 nM
# Procedure: as §1, §2, §3, §4
# 5/6 Nx (CKD) WT mice = experiment: 5/6 nephrectomy CKD model, closantel orally via the diet over 8 weeks; assay type: in vivo
# Procedure: The 5/6 nephrectomy (5/6 Nx) was performed in two stages (Leelahavanichkul A et al., Kidney Int. 78, 2010. 1136-1153) under isoflurane anesthesia (Fig. 1A). Pain was managed by s.c. injections of buprenorphine, metamizol and meloxicam. Additionally, the animals were treated for 3 days postsurgery with the analgesic piritramid via the drinking water, starting 6 h postsurgery. At the first stage (wk -1), the left kidney was decapsulated to avoid ureter and adrenal damage, and the upper and lower poles were partially resected via a left flank incision. Bleeding was controlled by microfibrillar collagen hemostasis (Avitene, Davol, Cranston, RI). The upper and lower poles were weighed. One week later, the entire right kidney was removed via a right flank incision and weighed. Animals with insufficient kidney resection as determined by a ratio of < 0.55 for the removed left kidney weight to the removed right kidney weight were euthanized. In the Sham surgery control mice, a left flank incision was performed at step 1, both poles of kidney were identified, then the flank incision was closed; a subsequent right flank incision was performed at step 2; the right renal artery was identified, then the flank incision was closed. After each flank incision, muscles and skin were repositioned and sewed. Mortality was tracked throughout the study. Necropsy was not performed on animals that died early.
# For this experiment, WT Sham and 5/6-Nx mice were fed powdered rescue diet throughout the study. Closantel (Abcam) was dissolved in 100% ethanol (vehicle), and mixed into the moistened diet. To achieve a loading dose of 5 mg/kg body weight, the drug was mixed into the food at an initial concentration of 30 mg/kg diet. […] All mice were killed 8 weeks postsurgery.
# Central arterial pressure and cardiac hemodynamic parameters were assessed using a SPR-671NR pressure catheter (1.4 French; Millar Instruments). Mice were anesthetized with 1.5% isoflurane in oxygen. The catheter was inserted into the ascending aorta for measurement of central arterial pressure. Parameters of LV function (i.e., maximum rate of the pressure rise, contractility index, end-diastolic pressure, and isovolumetric relaxation time) were measured by placing the catheter into the left ventricle. All pressure recordings were performed at the same anesthesia level. Hemodynamic measurements were recorded over 5 min, and traces were analyzed using LabChartPro software and a blood pressure (BP) module. After pressure measurements, all animals were euthanized.
# The blood volume was determined from plasma volume and hematocrit as described in Lee H B & Blaufox M D (J. Nucl. Med., 1985. 26, 72-76). Plasma volume was determined by Evans blue dye dilution (Barron W M et al., J. Clin. Invest, 1984. 73, 923-932). Briefly, 20 µl of a 0.4% (wt/vol) solution of Evans blue (Sigma) in sterile physiological saline was injected into a tail vein. Blood samples (10 µl) were collected at 10 min and 30 min after injection to measure disappearance kinetics. Tubes were centrifuged and the hematocrit was recorded. Evans blue concentration in the plasma was measured in duplicate as optical density using the 2-wavelength method.
# Total kidney homogenates, kidney cortex homogenates or total cell membrane preparations were solubilized in Laemmli sample buffer, fractionated on SDS- PAGE (30 µg/well) and transferred to a nitrocellulose membrane (Thermo Scientific). […] After washing, membranes were incubated with horseradish peroxidase-conjugated secondary antibodies (Amersham Life Sciences). Specific signal was visualized by ECL kit (Amersham Life Sciences). The protein bands were quantified by Image Quant 5.0 software (Molecular Dynamics). Loading of the samples was normalized to Ponceau S stain. The expression levels were normalized to β-actin expression. […]
# [3] = molecular target: WNK-regulated kinase SPAK (Ste20-like proline/alanine-rich kinase) (Homo sapiens, UniProt Q9UEW8); conditions: literature (Kikuchi et al. 2014); cited from earlier work
# [4] = in vivo, cited from earlier work
# [5] = Western blotting, renal total homogenates, CKD mice, 8 weeks postsurgery
# [6] = oral via diet once a week, 8 weeks postsurgery
structure (smiles),measurement,setting,value
"Cc1cc(C(C#N)c2ccc(Cl)cc2)c(Cl)cc1NC(=O)c1cc(I)cc(I)c1O (centres unmarked) [closantel, N-[5-chloro-4-[(4-chlorophenyl)-cyanomethyl]-2-methylphenyl]-2-hydroxy-3,5-diiodobenzamide]",rFGF23-induced increase in intracellular Ca^2+ fluorescence (distal tubular Ca^2+ uptake),renal distal tubules [1],abrogated
same,rFGF23-induced increase in intracellular Na^+ fluorescence (distal tubular Na^+ uptake),renal distal tubules [2],abrogated
same,urinary excretion of Na^+,"5/6 Nx (CKD) WT mice; CKD mice, 8 weeks postsurgery",increased
same,disease progression in CKD mice,"5/6 Nx (CKD) WT mice; Figure 13 legend, oral via diet once a week over 8 weeks",largely protects
same,renal pNCC expression,5/6 Nx (CKD) WT mice; [5],downregulation
same,renal pNKCC expression,5/6 Nx (CKD) WT mice; [5],downregulation
same,renal pWNK1 expression,5/6 Nx (CKD) WT mice; [5],downregulation
same,CKD-induced increase in HW/BW ratio,5/6 Nx (CKD) WT mice; [6],largely prevented
same,CKD-induced increase in blood pressure,5/6 Nx (CKD) WT mice; [6],largely prevented
same,CKD-induced increase in blood volume,5/6 Nx (CKD) WT mice; [6],largely prevented
same,CKD-driven decline in GFR,"5/6 Nx (CKD) WT mice; oral via diet once a week, loading dose 5 mg/kg body weight, 8 weeks postsurgery",largely prevented
same,inhibition of the WNK-regulated kinase SPAK,[3],potent inhibitors
same,bioavailability,[4]; po,~50%
same,plasma half-life,[4],14 days
